Data taken from paper PMC6261607, “Novel high–throughput myofibroblast assays identify agonists with therapeutic potential in pulmonary fibrosis that act via EP2 and EP4 receptors” (PLoS ONE, 2018).
Where two headings read alike, the source gives them in different places.

How the values were obtained:
[1] = tested on: normal human lung fibroblasts (NHLF); assay: Phenotypic high-content assay (HCA) of TGF–β1–induced fibroblast–to–myofibroblast differentiation; assay type: cell-based; conditions: NHLF, 5 ng/ml TGF–β1 for 48 h, compound added with TGF–β1, mean ± SD, read-out: HCA IC50
Experimental: (§1) The plate was washed 3 times with starvation medium, e.g. fibroblast basal medium (FBM, Lonza) supplemented with 0.1% faf BSA, 100 units / ml of penicillin and 100 μg / ml of streptomycin and 250 ng / ml amphotericin B, and then starved for 24 h in 30 μl volume. NHLF were differentiated into myofibroblasts by incubation with 5 ng / ml TGF–β1 (from a stock of 20 μg / ml in 4 mM HCl, 1 mg / ml BSA) for 48 h. Compounds were prepared as 5x stocks in starvation medium and added to the starved cells to a final 1x concentration concomitant with TGF–β1 addition. The final DMSO concentration in the assay was 0.6% in all wells. 48 h after TGF–β1 addition, the medium was removed and the cells were fixed in methanol for 10 min at room temperature (RT). After fixation, cells were washed 3 times with 1 x PBS and either stored at 4°C for up to 3 days or further processed. […] Images were acquired on the Opera Phenix confocal high–content screening system (Perkin Elmer) using the 20–x water immersion lens.
(§2) DAPI stained nuclei were used to identify cells. α–SMA and FN regions were then identified and mapped to the corresponding nuclei for background correction, cell segmentation and cell feature computation to identify, classify and weigh over 400 features per cell. The computed features (S1 Table) comprise, but are not limited to, granularity, intensity, texture, area, shape and solidity of a cell in both α–SMA–and FN–expressing regions. The 0% compound effect (5 ng / ml TGF–β1) and the 100% compound effect (0 ng / ml TGF–β1) controls, were used to train and validate a support vector machine (SVM), a supervised learning model with associated learning algorithm that, once successfully validated, was applied to every cell in every well of the assayed microtiter plate. The SVM allowed autonomous weighting and classification of the characteristics and thus enabled the classifier to decide which characteristics were most relevant for the differentiation of the cell types. […] The classification of each cell was aggregated to a cell type ratio per well, represented as the computed percentage effect value per well indicative of the degree of myofibroblast differentiation. E.g. 100% equals complete myofibroblast differentiation, 0% indicates a pure fibroblast population without any signs of differentiation.

[2] = tested on: α–SMA protein in NHLF cells; assay: RapidFire MS/MS quantification of α–SMA (IPQA), standard assay; assay type: cell-based, human; conditions: NHLF, 5 ng/ml TGF–β1, lysed 48 h after TGF–β1, normalized to tubulin, mean ± SD, read-out: MS / MS α–SMA IC50
Experimental: (§3) Cell culture medium was removed and cells were lysed on ice by adding 5 μl / well of pre–cooled protein extraction buffer containing 10 mM Tris–HCl (pH 8.0), 6 M urea and 2 M thiourea and shaking on ice on a plate shaker at 600 rpm for 30 min.
(§4) Cell lysate was transferred to a 96–well polypropylene–PCR–plate. 15 μl / well denaturation buffer (6 M urea, 50 mM ammonium bicarbonate) and 2 μl / well of 50 mM TCEP were added and samples were denatured for 1 h at 60°C using the Veriti 96–well Fast Thermal Cycler System (Applied Biosystem) with a heated lid. Plates were allowed to cool to RT. Subsequently, 2 μl of 100 mM iodoacetamide were added per well to derivatize cysteine residues. Plates were then sealed and vortexed for 2 min in the dark and incubated for 30 min at 37°C in a thermal cycler with a heated lid. 90 μl of 50 mM ammonium bicarbonate pH 7.8 were added, followed by the addition of 10 μl of trypsin at 0.02 μg / ml. Samples were trypsin–digested overnight at 37°C in a thermal cycler with heated lid. […] Samples were desalted under vacuum using an Oasis HLB 96–well (30 μm particle size, 5 mg sorbent / well) reverse phase cartridge according to the manufacturer’s instructions and eluted with 170 μl of 90% acetonitrile, 0.1% formic acid. Samples were dried down with a flow of nitrogen at 40°C, left to cool to RT and re–suspended in 40 μl 5% acetonitrile, 0.1% formic acid on a plate shaker set to 1400 rpm for 5 min. Plates were centrifuged at 4,000 rpm for 10 min and 2 times 12 μl / well of supernatant were transferred into separate 96–well plates (Greiner Bio–One), sealed and stored at 4°C until analyzed by MS / MS.
(§5) Surrogate tryptic peptides were chosen for detection of COL1 (COL1A1), α–SMA (ACTA) and tubulin (TBA1A1) and crude synthetic peptides were purchased from Thermo Fischer. After several rounds of optimization following standard workflows, […] (COL1 / COL1A1), […] (α–SMA / ACTA) and […] LC–MS / MS analysis was performed on a RapidFire™ RF360 system (Agilent Technologies) coupled to an API 5500 (ABSciex) with positive ion electrospray ionization. […] Detection was performed using multiple reaction monitoring (MRM) mode to monitor parent⟶product ion transitions (m / z). […] The source parameters were curtain gas (CUR) nitrogen: 20 psig; collision gas (CAD): 7 psig; ion source gas 1: 50.0 psig; ion source gas 2: 50.0 psig; ion spray voltage (IS): 5500 V; turbo heater temperature (TEM): 600°C; entrance potential (EP): 10V. Peak areas for COL1A1 and ACTA were normalized by dividing by TBA1A peak area.

[3] = tested on: normal human lung fibroblasts (NHLF); assay: Impedance measurement of TGF–β1–induced myofibroblast transition (IPQA), standard assay; assay type: cell-based; conditions: 5 ng/ml TGF–β1, compound added with TGF–β1, impedance at t = 20 h post TGF–β1, mean ± SD, read-out: Impedance IC50
Experimental: (§6) To measure dynamic cell shape and adhesion changes during fibrotic transdifferentiation, NHLF were seeded at a density of 20,000 cells per well in FGM–2 growth medium (Lonza) containing 100 units / ml of penicillin and 100 μg / ml of streptomycin into E–plates with continued impedance signal measurement (xCELLigence system, Roche Applied Science). After overnight growth, the medium was exchanged for FBM (Lonza) supplemented with 100 units / ml of penicillin and 100 μg / ml of streptomycin and 0.1% faf BSA and cells were starved for 32 h. Compound dilution series were added and myofibroblast transition was induced by adding TGF–β1 at a concentration of 5 ng / ml, followed by continued impedance sampling for up to 48 h. For data analysis, impedance raw traces were normalized to the time point of compound addition and the baseline response (DMSO, non–TGF–β1 treated cells) was subtracted. In some cases, impedance values at defined time points were used to generate concentration–response curves to determine compound potency and efficacy using GraphPad Prism software version 7 (GraphPad Software Inc).

[4] = tested on: COL1 protein in NHLF cells; assay: RapidFire MS/MS quantification of COL1 (IPQA), standard assay; assay type: cell-based, human; conditions: NHLF, 5 ng/ml TGF–β1, lysed 48 h after TGF–β1, normalized to tubulin, mean ± SD, read-out: MS / MS COL1 IC50
Experimental: as §3, §4, §5

[5] = tested on: α–SMA protein in TGF–β1–induced NHLF myofibroblasts; assay: MS/MS α–SMA, NHLF myofibroblast reversal assay; assay type: cell-based, human
Experimental: as §3, §4, §5
(§7) To identify compounds with potential to revert differentiated myofibroblasts to fibroblasts the assay procedures were modified. After 24 h starvation, NHLF cells were stimulated with 5 ng / ml TGF–β1 for 24 h. At t = 24 h TGF–β1 was removed and either vehicle (DMSO) or compounds were added and incubated with the cells for a further 72 h.

[6] = tested on: COL1 protein in TGF–β1–induced NHLF myofibroblasts; assay: MS/MS COL1, NHLF myofibroblast reversal assay; assay type: cell-based, human
Experimental: as §3, §4, §5, §7

[7] = tested on: TGF–β1–induced NHLF myofibroblasts; assay: cells; assay type: cell-based; conditions: reversal assay: 24 h 5 ng/ml TGF–β1, washed, then compound; impedance data at t = 20 h
Experimental: as §6, §7

[8] = tested on: rat lung myofibroblasts (RLMyoF); assay: Impedance in primary myofibroblasts from fibrotic rat lungs; assay type: cell-based, Wistar rat; conditions: S8 Fig
Experimental: Isolation of fibroblasts from the right middle lung lobe of bleomycin–instilled 20–month old Wistar rats. […] On day 0, rats (n = 3) were anesthetized with isoflurane and instilled intra–tracheally with 315 mg of bleomycin sulfate (Baxter) in a volume of 210 μl followed by 210 μl of air to equally distribute the substance in the lung. On day 28, rats were euthanized using isoflurane (5%), exsanguinated and right lung middle lobes (RML) were collected in a sterile culture dish on ice in Dulbecco's Modified Eagle's Medium (DMEM) / F12 (1:1, Thermo Fisher), minced, washed 3 times with DMEM / F12 medium and digested with 0.1% collagenase (Collagenase II–S: Invitrogen) and 15 μg / ml DNase (DNase I, Sigma) in DMEM / F12 medium in a shaking water bath at 37°C for 15 min. Digests were separated by gravity and the supernatant was transferred to a new vial supplemented with 4 volumes of ice–cold starter medium consisting of DMEM / F12 (1:1), 10% (v / v) fetal bovine serum (PAA), 1% (v / v) penicillin / streptomycin 100 U / 100 μg / ml (Thermo Fisher), and insulin / transferrin / sodium selenite (Thermo Fisher). Then, the cell suspension was passed through a cell strainer by centrifugation at 1600 rpm at 4°C for 10 min. The pelleted cells were resuspended in pre–warmed (37°C) starter medium and seeded in a cell culture dish. After 60 minutes, the medium was replaced by new starter medium. After 24 hours, the medium was exchanged for DMEM / F12 to which 10% (v / v) fetal bovine serum and 1% penicillin / streptomycin was added.

[9] = tested on: normal human lung fibroblasts (NHLF); assay: Nuclear count in the HCA, standard assay; assay type: cell-based; conditions: standard HCA, NHLF, 5 ng/ml TGF–β1, 48 h; read-out: Nuclear count IC50
Experimental: as §1, §2

Row | Compound | IC50 ([1]; Homo sapiens, Fibroblast, 48 h) [µM] | IC50 ([2]; Homo sapiens) [µM] | IC50 ([3]; Fibroblast) [µM] | IC50 [1] [µM] | IC50 [2] [µM] | IC50 [3] [µM] | IC50 [4] [µM] | IC50 ([4]; Homo sapiens, Col1) [µM] | further results
1 | O=c1cc(N2CCOCC2)oc2c(-c3ccccc3)cccc12 [LY294002] | 2.4 | 27 | 13 | – | – | – | – | – | IC50 ([4]; Homo sapiens, Col1, 48 h): 45 µM
2 | COc1cccc(-c2cc(=O)c3ccccc3o2)c1N [PD98059] | – | – | – | > 46 | 50 | 19 | > 50 | – | –
3 | CC(C)NC[C@@H](C(=O)N1CCN(c2ncnc3c2[C@H](C)C[C@H]3O)CC1)c1ccc(Cl)cc1 [Ipatasertib] | 22 | 25 | 43 | – | – | – | – | > 50 | –
4 | C=C[C@@]1(C)CC(=O)[C@]2(O)[C@@]3(C)[C@@H](O)CCC(C)(C)[C@@H]3[C@H](O)[C@H](OC(C)=O)[C@@]2(C)O1 [Forskolin] | – | – | – | – | – | – | – | – | IC50 ([5]; Homo sapiens, NHLF pre–stimulated 24 h with 5 ng/ml TGF–β1, representative experiment, S7 Fig D, read-out: IC50, reversal of α–SMA (curve of a single experiment)): 5.12 µM; IC50 ([6]; Homo sapiens, Col1, NHLF pre–stimulated 24 h with 5 ng/ml TGF–β1, representative experiment, S7 Fig E, read-out: IC50, reversal of COL1 (curve of a single experiment)): 1.73 µM
5 | CC[C@@H](C(=O)[C@@H](C)[C@@H](O)[C@H](C)[C@@H]1O[C@@H]([C@@H](CC)C(=O)O)CC[C@@H]1C)[C@H]1O[C@]2(C=C[C@@H](O)[C@]3(CC[C@@](C)([C@H]4CC[C@](O)(CC)[C@H](C)O4)O3)O2)[C@H](C)C[C@@H]1C [Salinomycin] | – | 0.29 ± 0.3 | 1.5 | – | – | – | – | 1.2 | IC50 ([1]; Homo sapiens, Fibroblast): 15.8 µM
6 | CCn1c(-c2nonc2N)nc2cnc(Oc3cccc(NC(=O)c4ccc(OCCN5CCOCC5)cc4)c3)cc21 [GSK–269962] | – | – | – | 0.24 ± 0.27 | 0.022 ± 0.001 | 1.01 | 3.1 | – | IC50 [7]: > 10 µM; IC50 ([8]; read-out: RLMyoF impedance IC50 (3 h), impedance at 3 h): 0.011 µM; IC50 ([8]; read-out: RLMyoF impedance IC50 (20 h), impedance at 20 h): 0.133 µM; IC50 ([5]; reversal assay: 24 h 5 ng/ml TGF–β1, washed, 72 h compound, normalized to tubulin, read-out: MS / MS α–SMA IC50): 0.035 µM; IC50 ([6]; reversal assay: 24 h 5 ng/ml TGF–β1, washed, 72 h compound, normalized to tubulin, read-out: MS / MS COL1 IC50): 0.537 µM; IC50 [9]: > 50 µM
7 | O=C1c2ccc(Nc3ccc(F)cc3F)cc2CCc2ccc(OC[C@H](O)CO)cc21 [L–skepinone] | 23 | 0.96 ± 0.44 | 5 | – | – | – | – | – | IC50 ([4]; Homo sapiens, Col1, 48 h): 1.5 µM
8 | Cn1c(=O)c(Oc2ccc(F)cc2F)cc2cnc(NC(CCO)CCO)nc21 [Pamapimod] | > 46 | 34 | 19 | – | – | – | – | > 50 | –
9 | CN(C)Cc1cccc(N/C(=C2\C(=O)Nc3cc(C(=O)N(C)C)ccc32)c2ccccc2)c1 [BIX 02189] | – | – | – | 22 | 14 | 6 | 6.5 | – | –
